Test results as given in ChEMBL document CHEMBL2157926, “Peptoid ligands that bind selectively to phosphoproteins” (Bioorg Med Chem Lett, 2011).
The source made the active and inactive calls. The calls are words filed in the database; no cut-off is given here. Non-standard residues stand in square brackets, D forms with d. Residues, ends and D or L forms follow the SMILES beside them. Gly(N-(CH2)3N-pyrrolidone) = O=C(O)CNCCCN1CCCC1=O; N(4-hydroxyphenethyl)Gly = O=C(O)CNCCc1ccc(O)cc1; NFurfurylGly = O=C(O)CNCc1ccco1; Nleu = CC(C)CNCC(=O)O; Nlys = NCCCCNCC(=O)O; Nme = COCCNCC(=O)O

Columns and labels:
[1] = target: T1, Bromodomain-containing protein 4 (Homo sapiens, UniProt O60885); experiment: Binding affinity to modified phosphorylated human BRD4 phosphorylation-dependent interaction domain (287-530) expressed in Sf9 cells assessed as formation of cross-linking products in presence of sodium periodate using Neutravedin HRP by Western blot method
[2] = target: T1, Bromodomain-containing protein 4; experiment: Binding affinity to Flag tagged phosphorylated human BRD4 phosphorylation-dependent interaction domain (287-530) assessed as formation of cross-linking products at 0.5 uM in presence of sodium periodate using Neutravedin HRP by SDS-PAGE method
[3] = target: T1, Bromodomain-containing protein 4; experiment: Binding affinity to Flag tagged phosphorylated human BRD4 phosphorylation-dependent interaction domain (287-530) assessed as formation of cross-linking products at 0.5 uM in absence of sodium periodate using Neutravedin HRP by SDS-PAGE method
[4] = target: T1, Bromodomain-containing protein 4; experiment: Binding affinity to modified phosphorylated human BRD4 phosphorylation-dependent interaction domain (287-530) expressed in Sf9 cells assessed as formation of cross-linking products in absence of sodium periodate using Neutravedin HRP by Western blot method
[5] = target: T1, Bromodomain-containing protein 4; experiment: Binding affinity to Flag tagged phosphorylated human BRD4 phosphorylation-dependent interaction domain (287-530) assessed as formation of cross-linking products at 0.1 uM in presence of sodium periodate using Neutravedin HRP by SDS-PAGE method
[6] = target: T1, Bromodomain-containing protein 4; experiment: Binding affinity to modified phosphorylated human BRD4 phosphorylation-dependent interaction domain (598-785) expressed in Sf9 cells assessed as red fluorescence by SDS-PAGE method based one-bead binding assay
[7] = target: T1, Bromodomain-containing protein 4; experiment: Binding affinity to modified phosphorylated human BRD4 phosphorylation-dependent interaction domain (598-785) using fluorescein 5-maleimide by fluorescence polarization method

Row | Activity [1] | Activity [2] | Activity [3] | Activity [4] | Activity [5] | Activity [6] | Kd [7] | Compound
1 | Active | Active | inactive | inactive | inactive | – | – | COCCN(CC(=O)N(CCCCN)CC(=O)N(CCCCN)CC(=O)NC(Cc1ccc(O)c(O)c1)C(=O)N[C@H](CCC(=O)NCCCOCCOCCOCCCNC(=O)CCCC[C@@H]1SC[C@@H]2NC(=O)N[C@@H]21)C(N)=O)C(=O)CN(CCCCN)C(=O)CN(CCc1ccc(O)cc1)C(=O)CNCC(C)C (stereo partly drawn)
2 | – | – | – | – | – | inactive | 50 µM | COCCN(CC(=O)N(CCCCN)CC(=O)N(CCCCN)CC(N)=O)C(=O)CN(CCCCN)C(=O)CN(CCc1ccc(O)cc1)C(=O)CNCC(C)C (H-[Nleu][N(4-hydroxyphenethyl)Gly][Nlys][Nme][Nlys][Nlys]-NH2)
3 | – | – | – | – | – | Active | – | CC(C)CN(CC(=O)N(CCCCN)CC(=O)N(CC(=O)N(CCCCN)CC(=O)N(CCCCN)CC(N)=O)Cc1ccco1)C(=O)CNCCCN1CCCC1=O (H-[Gly(N-(CH2)3N-pyrrolidone)][Nleu][Nlys][NFurfurylGly][Nlys][Nlys]-NH2)
